Data on 30 compounds can be found in patent US11524968B2, “Heterocyclic compound as a protein kinase inhibitor” (HK inno.N Corporation, priority 2017, dated 2022).

One may read the IC50 as the midpoint of a concentration-inhibition curve.

The target of the assay is JAK1 (Homo sapiens (Human), UniProt P23458). In words: Analysis of JAK1 activity inhibition ability (ADP-Glo Kinase Assay). The conditions noted are these: JAK1 enzyme, ADP-Glo luminescence, ATP 250 uM, IRS-itide substrate, 30° C. 40 minutes; read-out: IC50. Format: biochemical. The procedure, abridged: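 ADP-Glo luminescence read-out of ADP production, with IC50 taken as the concentration halving JAK1 activity relative to control. Enzyme was incubated 40 min at 30 °C with compound, IRS-itide (40 ng/mL) and ATP (250 uM), concentrations as prepared in pH 7.5 Tris-HCl/MgCl2/BSA/DTT buffer.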
JAK1, sequence (P23458 whole entry): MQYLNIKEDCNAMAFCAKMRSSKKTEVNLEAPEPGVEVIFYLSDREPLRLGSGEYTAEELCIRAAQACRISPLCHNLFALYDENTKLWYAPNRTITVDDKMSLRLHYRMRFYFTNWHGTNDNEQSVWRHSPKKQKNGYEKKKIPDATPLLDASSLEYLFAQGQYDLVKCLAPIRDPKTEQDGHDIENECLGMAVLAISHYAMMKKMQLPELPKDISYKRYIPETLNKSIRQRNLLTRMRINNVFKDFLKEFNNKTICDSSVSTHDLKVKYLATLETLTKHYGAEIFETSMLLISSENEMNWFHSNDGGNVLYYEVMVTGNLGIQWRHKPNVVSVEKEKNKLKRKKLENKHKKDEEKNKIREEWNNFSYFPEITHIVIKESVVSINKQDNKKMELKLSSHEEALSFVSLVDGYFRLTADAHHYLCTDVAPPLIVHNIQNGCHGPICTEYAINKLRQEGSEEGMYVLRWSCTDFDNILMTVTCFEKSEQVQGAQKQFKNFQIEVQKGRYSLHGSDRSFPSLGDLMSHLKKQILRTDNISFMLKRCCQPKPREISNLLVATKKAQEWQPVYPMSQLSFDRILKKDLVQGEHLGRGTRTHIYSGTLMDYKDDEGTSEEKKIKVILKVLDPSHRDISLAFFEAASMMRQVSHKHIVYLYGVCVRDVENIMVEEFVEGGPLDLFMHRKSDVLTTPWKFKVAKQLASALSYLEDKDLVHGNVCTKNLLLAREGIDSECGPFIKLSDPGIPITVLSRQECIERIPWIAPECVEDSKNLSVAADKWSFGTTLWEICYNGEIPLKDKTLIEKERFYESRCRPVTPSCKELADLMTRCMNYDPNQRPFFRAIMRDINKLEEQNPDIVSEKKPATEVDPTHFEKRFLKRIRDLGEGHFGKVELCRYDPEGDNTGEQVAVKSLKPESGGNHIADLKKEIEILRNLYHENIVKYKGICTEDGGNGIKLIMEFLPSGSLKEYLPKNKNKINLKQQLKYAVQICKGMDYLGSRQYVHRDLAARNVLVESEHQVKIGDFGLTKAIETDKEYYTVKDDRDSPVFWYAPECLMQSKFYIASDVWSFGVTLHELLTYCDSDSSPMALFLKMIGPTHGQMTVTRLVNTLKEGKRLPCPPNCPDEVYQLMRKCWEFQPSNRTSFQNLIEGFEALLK
Background: ADP-Glo turns the ADP formed in a reaction into a luminescent signal.
Turning to `O=C(Nc1nc(-c2ccc(NS(=O)(=O)CCCF)cc2)c2cc[nH]c2n1)C1CC1` [Example 185, N-(4-(4-((3-fluoropropyl)sulfonamido)phenyl)-7H-pyrrolo[2,3-d]pyrimidin-2-yl)cyclopropanecarboxamide], the IC50 is < 20 nM.
As to `CC1(C)CC(c2cc(NC(=O)C3CC3)nc3[nH]ccc23)=CCN1C(=O)CC#N` [Example 387, N-(4-(1-(2-cyanoacetyl)-2,2-dimethyl-1,2,3,6-tetrahydropyridin-4-yl)-1H-pyrrolo[2,3-b]pyridin-6-yl)cyclopropanecarboxamide], the IC50 fell in the range of 20 to 200 nM.
With `CCNC(=S)Nc1ccc(-c2cc(NC(=O)C3CC3)nc3[nH]ccc23)cc1` [Example 462, N-(4-(4-(3-ethylthioureido)phenyl)-1H-pyrrolo[2,3-b]pyridin-6-yl)cyclopropanecarboxamide], the IC50 fell in the range of 20 to 200 nM.
As to `CC1CN(C(=O)c2ccnc(F)c2)CC=C1c1cc(NC(=O)C2CC2)nc2[nH]ccc12` (stereo not drawn) [Example 309, N-(4-(1-(2-fluoroisonicotinoyl)-3-methyl-1,2,3,6-tetrahydropyridin-4-yl)-1H-pyrrolo[2,3-b]pyridin-6-yl)cyclopropanecarboxamide], the IC50 was < 20 nM.
On to `C[C@@H]1CN(C(=O)c2cccc(Br)c2)CC=C1c1cc(NC(=O)C2CC2)nc2[nH]ccc12` [Example 397, (S)—N-(4-(1-(3-bromobenzoyl)-3-methyl-1,2,3,6-tetrahydropyridin-4-yl)-1H-pyrrolo[2,3-b]pyridin-6-yl)cyclopropanecarboxamide], for which the half-inhibitory concentration (IC50) is < 20 nM.
To `CC1CN(C(=O)c2cccc(F)c2F)CC=C1c1cc(NC(=O)C2CC2)nc2[nH]ccc12` (stereo not drawn) [Example 378, N-(4-(1-(2,3-difluorobenzoyl)-3-methyl-1,2,3,6-tetrahydropyridin-4-yl)-1H-pyrrolo[2,3-b]pyridin-6-yl)cyclopropanecarboxamide] belongs < 20 nM.
As to `CCCS(=O)(=O)N[C@H]1CCN(c2nc(NC(=O)C3CC3)nc3[nH]ccc23)C1` [Example 670, (S)—N-(4-(3-(propylsulfonamido)pyrrolidin-1-yl)-7H-pyrrolo[2,3-d]pyrimidin-2-yl)cyclopropanecarboxamide], the IC50 is > 200 nM.
Consider `N#CCC(=O)N1CC=C(c2nc(NC(=O)C3CC3)nc3[nH]ccc23)CC1` [Example 425, N-(4-(1-(2-cyanoacetyl)-1,2,3,6-tetrahydropyridin-4-yl)-7H-pyrrolo[2,3-d]pyrimidin-2-yl)cyclopropanecarboxamide], for which the IC50 is 20 to 200 nM.
The figure for `COC(=O)c1cc(NS(=O)(=O)CC2(C#N)CC2)ccc1-c1cc(NC(=O)C2CC2)nc2[nH]ccc12` [Example 142, methyl 5-(((1-cyanocyclopropyl)methyl)sulfonamido)-2-(6-(cyclopropanecarboxamido)-1H-pyrrolo[2,3-b]pyridin-4-yl)benzoate] is > 200 nM; for `CCN(C)S(=O)(=O)Nc1ccc(-c2cc(NC(=O)C3CC3)nc3[nH]ccc23)cc1` [Example 215, N-(4-(4-((N-ethyl-N-methylsulfamoyl)amino)phenyl)-1H-pyrrolo[2,3-b]pyridin-6-yl)cyclopropanecarboxamide] it is < 20 nM; for `O=C(Nc1cc(C2=CCN(S(=O)(=O)c3ccc(F)c(F)c3)CC2)c2cc[nH]c2n1)C1CC1` [Example 173, N-(4-(1-((3,4-difluorophenyl)sulfonyl)-1,2,3,6-tetrahydropyridin-4-yl)-1H-pyrrolo[2,3-b]pyridin-6-yl)cyclopropanecarboxamide] it is 20 to 200 nM.
Consider `CC(C)=C(C#N)C(=O)N1CC=C(c2cc(NC(=O)C3CC3)nc3[nH]ccc23)[C@H](C)C1` [Example 408, (S)—N-(4-(1-(2-cyano-3-methylbut-2-enoyl)-3-methyl-1,2,3,6-tetrahydropyridin-4-yl)-1H-pyrrolo[2,3-b]pyridin-6-yl)cyclopropanecarboxamide], for which the IC50 lay within 20 to 200 nM.
The figure for `CC1(C)CN(C(=O)CCC#N)CC=C1c1cc(NC(=O)C2CC2)nc2[nH]ccc12` [Example 300, N-(4-(1-(3-cyanopropanoyl)-3,3-dimethyl-1,2,3,6-tetrahydropyridin-4-yl)-1H-pyrrolo[2,3-b]pyridin-6-yl)cyclopropanecarboxamide] is 20 to 200 nM; for `N#CC1CC(N2CC=C(c3cc(NC(=O)C4CC4)nc4[nH]ccc34)CC2)C1` (stereo not drawn) [Example 490, N-(4-(1-(3-cyanocyclobutyl)-1,2,3,6-tetrahydropyridin-4-yl)-1H-pyrrolo[2,3-b]pyridin-6-yl)cyclopropanecarboxamide] it is 20 to 200 nM.
On to `O=C(Nc1cc(C2=CCN(C(=O)CCl)CC2)c2cc[nH]c2n1)C1CC1` [Example 298, N-(4-(1-(2-chloroacetyl)-1,2,3,6-tetrahydropyridin-4-yl)-1H-pyrrolo[2,3-b]pyridin-6-yl)cyclopropanecarboxamide], for which the IC50 is 20 to 200 nM.
As to `CC1CN(C(=O)c2cnccn2)CC=C1c1cc(NC(=O)C2CC2)nc2[nH]ccc12` (stereo not drawn) [Example 343, N-(4-(3-methyl-1-(pyrazine-2-carbonyl)-1,2,3,6-tetrahydropyridin-4-yl)-1H-pyrrolo[2,3-b]pyridin-6-yl)cyclopropanecarboxamide], the IC50 is 20 to 200 nM.
In the case of `N#CCC(=O)N1C2C=C(c3cc(NC(=O)C4CC4)nc4[nH]ccc34)CC1CCC2` (stereo not drawn) [Example 394, N-(4-(9-(2-cyanoacetyl)-9-azabicyclo[3.3.1]non-2-en-3-yl)-1H-pyrrolo[2,3-b]pyridin-6-yl)cyclopropanecarboxamide], the IC50 was < 20 nM.
Turning to `COC(=O)C(C)C(=O)N1CC=C(c2cc(NC(=O)C3CC3)nc3[nH]ccc23)C(C)C1` (stereo not drawn) [Example 320, methyl 3-(4-(6-(cyclopropanecarboxamido)-1H-pyrrolo[2,3-b]pyridin-4-yl)-3-methyl-3,6-dihydropyridin-1 (2H)-yl)-2-methyl-3-oxopropanoate], the 50% inhibitory concentration (IC50) was > 200 nM.
To `C[C@@H]1CN(C(=O)C(C#N)=Cc2cccs2)CC=C1c1cc(NC(=O)C2CC2)nc2[nH]ccc12` [Example 403, (S)—N-(4-(1-(2-cyano-3-(thiophen-2-yl)acryloyl)-3-methyl-1,2,3,6-tetrahydropyridin-4-yl)-1H-pyrrolo[2,3-b]pyridin-6-yl)cyclopropanecarboxamide] belongs 20 to 200 nM; to `CC1CN(C(=O)Cc2cccc(Br)c2)CC=C1c1cc(NC(=O)C2CC2)nc2[nH]ccc12` (stereo not drawn) [Example 347, N-(4-(1-(2-(3-bromophenyl)acetyl)-3-methyl-1,2,3,6-tetrahydropyridin-4-yl)-1H-pyrrolo[2,3-b]pyridin-6-yl)cyclopropanecarboxamide], 20 to 200 nM; to `O=C(Nc1cc(-c2ccc(NS(=O)(=O)CC(F)F)cc2)c2cc[nH]c2n1)C1CC1` [Example 51, N-(4-(4-((2,2-difluoroethyl)sulfonamido)phenyl)-1H-pyrrolo[2,3-b]pyridin-6-yl)cyclopropanecarboxamide], 20 to 200 nM.
The figure for `CCCS(=O)(=O)Nc1ccc(-c2nc(NC(=O)C3CC3)nc3[nH]ccc23)cc1F` [Example 206, N-(4-(3-fluoro-4-(propylsulfonamido)phenyl)-7H-pyrrolo[2,3-d]pyrimidin-2-yl)cyclopropanecarboxamide] is 20 to 200 nM.
The figure for `N#CCC(=O)N1CCN(c2cc(NC(=O)C3CC3)nc3[nH]ccc23)CC1` [Example 676, N-(4-(4-(2-cyanoacetyl)piperazin-1-yl)-1H-pyrrolo[2,3-b]pyridin-6-yl)cyclopropanecarboxamide] is > 200 nM; for `CC1CN(C(=O)c2ccc(Cl)nc2)CC=C1c1cc(NC(=O)C2CC2)nc2[nH]ccc12` (stereo not drawn) [Example 335, N-(4-(1-(6-chloronicotinoyl)-3-methyl-1,2,3,6-tetrahydropyridin-4-yl)-1H-pyrrolo[2,3-b]pyridin-6-yl)cyclopropanecarboxamide] it is 20 to 200 nM.
Consider `O=C(Nc1cc(-c2cnn(C3CN(S(=O)(=O)c4ccccc4)C3)c2)c2cc[nH]c2n1)C1CC1` [Example 604, N-(4-(1-(1-(phenylsulfonyl)azetidin-3-yl)-1H-pyrazol-4-yl)-1H-pyrrolo[2,3-b]pyridin-6-yl)cyclopropanecarboxamide], for which the IC50 is 20 to 200 nM.
On to `O=C(Nc1cc(C2=CCN(C(=O)c3ccncc3)CC2)c2cc[nH]c2n1)C1CC1` [Example 277, N-(4-(1-isonicotinoyl-1,2,3,6-tetrahydropyridin-4-yl)-1H-pyrrolo[2,3-b]pyridin-6-yl)cyclopropanecarboxamide], for which the IC50 is > 200 nM.
On to `O=C(Nc1nc(-c2ccc(NS(=O)(=O)c3ccc(Cl)cc3)cc2)c2cc[nH]c2n1)C1CC1` [Example 187, N-(4-(4-((4-chlorophenyl)sulfonamido)phenyl)-7H-pyrrolo[2,3-d]pyrimidin-2-yl)cyclopropanecarboxamide], for which the 50% inhibitory concentration (IC50) lay within 20 to 200 nM.
The figure for `CCNC(=S)N1C2C=C(c3cc(NC(=O)C4CC4)nc4[nH]ccc34)CC1CC2` (stereo not drawn) [Example 469, N-(4-(8-(ethylcarbamothioyl)-8-azabicyclo[3.2.1]oct-2-en-3-yl)-1H-pyrrolo[2,3-b]pyridin-6-yl)cyclopropanecarboxamide] is < 20 nM; for `CCS(=O)(=O)N1CC(CC#N)(N2CC=C(c3cc(NC(=O)C4CC4)nc4[nH]ccc34)[C@H](C)C2)C1` [Example 627, (S)—N-(4-(1-(3-(cyanomethyl)-1-(ethylsulfonyl)azetidin-3-yl)-3-methyl-1,2,3,6-tetrahydropyridin-4-yl)-1H-pyrrolo[2,3-b]pyridin-6-yl)cyclopropanecarboxamide] it is < 20 nM; for `CN(C)S(=O)(=O)c1ccc(S(=O)(=O)Nc2ccc(-c3cc(NC(=O)C4CC4)nc4[nH]ccc34)cc2)cc1` [Example 37, N-(4-(4-((4-(N,N-dimethylsulfamoyl)phenyl)sulfonamido)phenyl)-1H-pyrrolo[2,3-b]pyridin-6-yl)cyclopropanecarboxamide] it is 20 to 200 nM.
